In patent US20090197818A1, “Use Of Ribose for Recovery From Anaesthesia” (priority 2004, published 2009):

What was measured:
[1] = system: patients undergoing valve surgery plus CABG or CABG alone with aortic cross clamping; test: Double-blind placebo-controlled clinical trial of intravenous D-Ribose in cardiac surgery: ejection fraction by echocardiography; format: in vivo, human; conditions: placebo EF declined; ANOVA repeated measures p=0.04
Source text: A protocol was devised to test whether human subjects undergoing either valve surgery plus coronary artery bypass graft (CABG) or CABG alone with decreased heart function would benefit from the administration of ribose following heart surgery as did the healthy dogs of the Foker study. […] Inclusion criteria were: • Males or females aged 18 or older • Patients with documented coronary artery disease undergoing CABG with an ejection fraction (EF) of ≦35% based on echocardiography, radionuclide imaging or cardiac catheterization done within eight weeks of surgery. […] For both the transesophageal and transthoracic echocardiograms, the following long axis and short axis mid-papillary area changes were measured in triplicate by acoustic quantification techniques: end diastolic area (EDA), end systolic area (ESA), fractional area change (FAC), +dA/dt and -dA/dt. All area change data were also analyzed by manual off line analysis. EF was also determined off line using a long axis view. In addition, regional wall motion was quantified as the following: normal=1, hypokinetic=2, akinetic=3 and dyskinetic=4. The wall motion index score (WMIS) and percentage normal myocardium were calculated by reading a maximum of sixteen segments. […]

[2] = system: adult patients selected for OCBP revascularization; test: Presurgical oral D-ribose loading before off cardiopulmonary bypass (OCBP) revascularization: cardiac indices; format: in vivo, human; conditions: 24 patients oral D-ribose preoperatively vs 20 without; baseline to post-operative; p<0.028
Source text: Patients with stable coronary artery disease or patients presenting with acute myocardial infarction may undergo revascularization using an “off” cardiopulmonary bypass procedure (“OCBP”). This procedure avoids the deleterious effects of cross-clamping in patients who can be selected for the procedure. The selection criteria include: accessibility of the grafts; number of the grafts; condition of the patient. When the area to be revascularized is at the back of the heart, the heart will need to be handled and rotated, which would interfere with the beating of the heart. If several grafts are needed, the time of operation is prolonged and the patient's heart will need to support circulation for a long time. Finally, a poorly functioning heart will need the assistance of the pump to support circulation. Nevertheless, in properly selected patients, the benefits of avoiding cross-clamping are substantial.
Forty-four adult patients were enrolled in a trial. At least one-third of the patents had sustained an acute myocardial infarction prior to presentation and pre-operative ejection fractions ranged from 30-72%. All patients were selected for OCBP revascularization with 20 patients consuming no pre-operative ribose and 24 patients given oral D-ribose preoperatively, cardiac indices were measured at baseline and post-operatively. […]

[3] = system: cross-bred sheep
[4] = system: patients recovering from hip or knee replacement operations; test: Anecdotal results from non-cardiac surgery with general anaesthesia; format: in vivo, human
Source text: For example, a person underwent two hip replacement operations, five months apart. With the second operation, they began taking oral ribose immediately after their recovery from anaesthesia. Their recovery to a feeling of alertness and energy was more rapid than after the first operation. Furthermore, their level of pain was less. Likewise, a person also underwent two knee replacement operations. With the second operation, they self-administered D-Ribose pre- and postoperatively. Their recovery to a feeling of alertness and energy was more rapid than after the first operation. Bauer et al. (Z. Geb. Neonatal 2001 May-June, 205(3):80-85) studied the efficacy of oral glucose for treating procedural pain in neonates. […] The authors proposed that the orogustatory stimulation by the sweet taste caused an endorphin release. It is not known whether the result seen was due to the local effect or to a systemic effect of glucose.

[5] = Blood glucose monitoring and clinical laboratory safety in the intravenous D-Ribose cardiac surgery trial; format: in vivo, human
Experimental: Blood glucose levels were determined hourly, after initiation of the study drug infusion, by dextrastix (Accu-Chk III, Boehringer Mannheim Corp. Indianapolis Ind.) using blood from an intraarterial catheter. If the blood glucose level remained stable for 12 hours, then subsequent blood glucose levels were measured every 4 to 6 hours until the study drug infusion was stopped. Other clinical laboratory measurements including complete CBC with differential, platelet count, electrolytes=, liver function studies, serum osmolarity, and urinalysis were completed the morning following surgery. Abnormal laboratory tests were repeated as clinically indicated until normal or determined not to be clinically significant.
Five patients (28%) in the ribose treated group developed hypoglycemia (fingerstick glucose<70 mg/dl)) a known side effect of this pentose sugar. No placebo treated patients developed hypoglycemia. The mean glucose level in those patients developing hypoglycemia was 58 mg/dl. The lowest glucose level was 31 mg/dl. […] The study drug infusion was stopped in two subjects because of hypoglycemia. […] There were no statistical differences in the other clinical laboratory measurements.

[6] = system: healthy dog hearts; conditions: D-Ribose from reperfusion for at least four days; U.S. Pat. No. 4,719,201; cited from earlier work
[7] = system: patients with aortic valve disease undergoing AVR; test: Planned clinical trial: preconditioning with oral D-Ribose before cross clamping, then intravenous infusion; format: in vivo, human; conditions: oral D-Ribose 7 or 14 days before surgery, then i.v. 100 mg/kg/hour for five days
Source text: A single-center, randomized, double-blinded placebo-controlled clinical trial was designed to determine if preoperative oral administration of D-Ribose, following by peri-operative and operative intravenous infusion of D-Ribose could improve the ejection fraction and other functional parameters of hearts that are cross-clamped for various cardiac surgical procedures. Thirty (30) patients meeting the inclusion and exclusion criteria and who have signed informed consent forms will be randomized to receive oral D-Ribose (15) or D-Glucose (placebo) (15) for seven or 14 days prior to their surgical procedure and intravenous 5% […] (5% D-Glucose in normal saline, 0.5 mL/kg/hour) or 10% pyrogen-free D-Ribose in 5% D5W at a dose of 100 mg/kg/hour for five (5) days through a pulmonary artery cordis) beginning at the time of aortic cross clamping. […] Patients will be evaluated baseline ×2, (once prior to beginning oral test supplement and again within three days prior to surgical procedure), during and after surgery, and at days 1, 5 and 7. […] Patients will be evaluated for eligibility within three days to first test article administration and evaluation will be updated within three days prior to surgery. […] A medication history will be taken and all medications recorded in the case report. […]

[8] = system: Wistar rats; test: Planned non-cardiac sham abdominal surgery study under halothane anaesthesia; format: in vivo, rat; conditions: D-Ribose before, during and after sham operation
Experimental: Littered-paired Wistar rats will be preconditioned with oral D-Ribose (250 mg/day, 10 animals) as a test drug or D-Glucose(250 mg/day, 10 animals) as a placebo for five days. Following the preconditioning, the rats will be anesthetized with halothane, intubated for artificial respiration and paralyzed with curare. Following general anaesthesia, the rats will be given either the test drug or placebo, intravenously (IV). A two-inch abdominal incision will be made and the viscera will be carefully manipulated to simulate an abdominal exploratory surgery. The incision will be closed and the animals will be held under anaesthesia for one additional hour. Following that hour, anaesthesia will be discontinued and the IV infusion will be halted. The animals will be placed individually in activity cages and their activity will be assessed daily for five days. Test drug or placebo will be added to the drinking water at a dosage of 5% wt/vol. The blinded results will be observed for: first movement (return to consciousness following the sham operation) and daily activity over the first day and next five days. Food and water intake and gastrointestinal function will be measured.

[9] = system: rats; conditions: halothane for 30 minutes; Hendricks et al. 1984; cited from earlier work

SMILES	course of EF from baseline to Day 7 versus placebo [1]	greater increase in cardiac indices compared to controls [2] [%]	time to cardiac arrest with cardioplegia containing ribose versus animals not given ribose ([3]; difference not statistically significant)	tolerability of supplemental ribose ([3]; in vivo)	time quiet and inactive after extubation ([3]; untreated series: additional 2 hours)	time to assume a consciousness state versus animals not given ribose ([3]; upon weaning from the ventilator)	recovery to a feeling of alertness and energy compared with first operation ([4]; oral ribose at second operation, single patients)	level of pain compared with first operation ([4]; person, oral ribose after second hip replacement)	patients with neurological or other clinical symptoms associated with hypoglycemia ([5]; hypoglycemic patients of the ribose treated group)	lowest glucose level ([5]; ribose treated group) [mg/dL]	mean glucose level in patients developing hypoglycemia ([5]; ribose treated group) [mg/dL]	patients who developed hypoglycemia (fingerstick glucose<70 mg/dl) ([5]; ribose treated group, five patients, none in placebo) [%]	ATP recovery after global myocardial ischemia [6]	expected myocardial function versus placebo [7]	expected activity during the following five days versus placebo [8]	expected first movement after anaesthesia versus placebo [8]	behavioural effects during the first week after anaesthesia [9]
O=C[C@H](O)[C@H](O)[C@H](O)CO [D-Ribose]	EF was maintained	49	somewhat faster	no metabolic or chemical abnormalities	about one	faster	more rapid	less	None	31	58	28	enhanced ATP recovery	better myocardial function	increased activity	earlier movement	
FC(F)(F)C(Cl)Br (centres unmarked) [halothane]																	reduced spontaneous activity and neurological deficit
